Data set [1] concerns the target T1, glucocorticoid receptor (rbGR) (Oryctolagus cuniculus, UniProt P59667).
T1 construct: cytosol containing PR or GR were prepared in TEGMD buffer; from tissue; host or cells: thymus of estradiol-primed immature rabbits (cytosol)
T1 sequence (P59667 1-772): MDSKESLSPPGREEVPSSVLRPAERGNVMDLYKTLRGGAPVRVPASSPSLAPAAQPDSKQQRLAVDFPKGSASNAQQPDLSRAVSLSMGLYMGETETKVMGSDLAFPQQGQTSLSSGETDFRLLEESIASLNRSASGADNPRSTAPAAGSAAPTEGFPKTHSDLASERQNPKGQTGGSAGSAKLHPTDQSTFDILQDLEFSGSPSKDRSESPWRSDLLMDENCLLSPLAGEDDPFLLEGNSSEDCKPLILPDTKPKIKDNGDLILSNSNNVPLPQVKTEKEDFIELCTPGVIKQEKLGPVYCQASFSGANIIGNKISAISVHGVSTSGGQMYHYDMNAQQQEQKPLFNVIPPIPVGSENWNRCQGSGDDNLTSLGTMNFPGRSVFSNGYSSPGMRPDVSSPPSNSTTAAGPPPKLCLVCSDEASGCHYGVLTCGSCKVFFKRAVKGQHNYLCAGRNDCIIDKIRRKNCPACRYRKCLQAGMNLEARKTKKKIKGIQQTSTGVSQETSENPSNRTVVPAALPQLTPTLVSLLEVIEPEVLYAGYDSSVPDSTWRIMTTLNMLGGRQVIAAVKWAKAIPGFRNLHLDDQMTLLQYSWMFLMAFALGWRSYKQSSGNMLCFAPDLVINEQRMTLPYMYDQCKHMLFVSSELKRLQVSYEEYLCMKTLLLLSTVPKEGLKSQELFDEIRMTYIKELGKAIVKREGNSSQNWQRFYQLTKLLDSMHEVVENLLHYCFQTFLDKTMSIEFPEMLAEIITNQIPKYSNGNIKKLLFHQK
Description: Glucocorticoid receptor binding / anti-glucocorticoid receptor activity. Details: species or system rabbit. Here is the method:
Certain antiprogestins were tested in receptor-binding assays for their ability to bind rabbit progesterone receptor (rbPR) and glucocorticoid receptor (rbGR). […] For PR binding, the cytosol was incubated with 6 nM 1,2-[^3H]progesterone (50.0 Ci/mmole) and competitors were added at concentrations from 2 to 100 nM. For binding to GR, the cytosol was incubated with 6 nM 6,7-[^3H]-dexamethasone (40 Ci/mmol) and test compounds were added at concentrations from 20 to 100 nM. After overnight incubation at 4 C, bound and unbound [^3H] steroids were separated by addition of dextran-coated charcoal and centrifugation at 2100×g for 15 min at 4 C. Supernatants containing the [3H]-steroid receptor complexes were decanted into vials containing 4 ml Optifluor (Packard Instrument Co.), vortexed, equilibrated in a liquid scintillation counter for 30 minutes and then counted for 2 minutes. […] The standards for the PR and GR assays were unlabeled progesterone and dexamethasone, respectively.

For the next data set, the target named is opiate μ receptor (MOP) (Homo sapiens, UniProt P35372). Description: Affinity for and inhibition of opiate μ receptor. It is filed as binding.
Sequence of opiate μ receptor (MOP) (P35372 whole entry): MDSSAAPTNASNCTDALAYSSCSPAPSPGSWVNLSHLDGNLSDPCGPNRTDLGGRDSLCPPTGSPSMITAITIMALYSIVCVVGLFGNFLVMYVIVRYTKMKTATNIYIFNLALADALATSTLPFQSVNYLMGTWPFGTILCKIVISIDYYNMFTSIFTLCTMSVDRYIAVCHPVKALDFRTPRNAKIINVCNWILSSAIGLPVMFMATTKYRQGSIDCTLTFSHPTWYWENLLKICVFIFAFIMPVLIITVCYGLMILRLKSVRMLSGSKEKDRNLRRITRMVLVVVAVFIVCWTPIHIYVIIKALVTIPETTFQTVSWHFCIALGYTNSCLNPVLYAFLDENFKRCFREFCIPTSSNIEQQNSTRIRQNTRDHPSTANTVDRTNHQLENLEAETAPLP
In a further data set the test system is endometrium. Description: Endometrial biopsies of women in the CDB-4124 treatment groups. The format is in vivo, human. On the procedure:
Endometrial biopsies were taken from 27 women exposed to 12.5 mg, 25 mg or 50 mg CDB-4124 for six months and 31 women with uterine fibroids exposed to 12.5 or 25 mg CDB-4124 for three months. Specimens were evaluated in a treatment blinded fashion utilizing the WHO diagnostic schema (Silverberg et al., tumors of the uterine corpus: epithelial tumors and related lesions. Tavassoli F A, Stratton M R, reditors. WHO Classification of Tumors: Pathology and Genetics of Tumors of the Breast and Female Genital Organs. Lyon, France: IARC Press, 2003: 221-232). A consensus primary end point result was determined for each specimen by majority (two or more of three pathologists agree), or in the event of all pathologists disagreeing the “worst” diagnosis of the three was assigned. Additional findings were recorded using a structured data collection instrument. All raw data was provided to the reviewing pathologists, who undertook an independent analysis that was the basis for their conclusions.

Data set [2] deals with progesterone-induced endometrial proliferation in the rabbit uterus. Description: anti-McGinty and anti-Clauberg assays (biological activity in the rabbit uterus). It is filed as in vivo. Conditions: in comparison to RU 486 and CDB-2914. The source says: Also given in Table 1 are the relative biological activities of the same compounds in the rabbit uterus by the anti-McGinty and anti-Clauberg assays. Compound CDB-2914 (listed at the end of the Table) was used as the control or reference compound (rabbit Biological Activity=1.00) for these experiments because results of experiments using CDB-2914 have been published before (Hild-Petito et al., 1996; Passaro et al., 1997; Reel et al., 1998; Lamer et al., 2000). For the anti-McGinty test, immature female rabbits received a subcutaneous injection of 5 μg estradiol in 10% ethanol/sesame oil daily for 6 consecutive days. On day 7, animals underwent sterile abdominal surgery to ligate a 3-4 cm segment of both uterine horns. The test compound in appropriate solvent was injected intraluminally into the ligated segment of one uterine horn and vehicle alone into the other. […] Five micron sections stained with hematoxylin and cosin were evaluated microscopically for the degree of endometrial glandular proliferation. The percent inhibition of endometrial proliferation for each rabbit was calculated and the mean of the group of five animals recorded. […] Five micron sections stained with hematoxylin and eosin were evaluated microscopically for the degree of endometrial glandular proliferation. […]

The nature of data set [3]: Serum corticosterone in rats. Conditions: progesterone, CDB-4124 and RU-486 groups compared.
Data set [4] has as its system females suffering from endometriosis. Description: Example 12: 12.5 mg CDB-4124 beginning at day 5 versus day 15 of the menstrual cycle. Conditions: 12.5 mg for a six-month period. The format is in vivo, human. Here is the method: Females suffering from endometriosis are divided into two groups: a first group receives 12.5 mg of CDB-4124 for a six-month period beginning at day 5 of each female's menstrual cycle; a second group receives 12.5 mg of CDB-4124 for a six-month period beginning at day 15 of each female's menstrual cycle. Endometrial thickness is monitored regularly throughout the six-month period.

With `COCC(=O)[C@@]1(OC(C)=O)CC[C@H]2[C@@H]3CCC4=CC(=O)CCC4=C3[C@@H](c3ccc(N(C)C)cc3)C[C@@]21C` [CDB-4124, 21-methoxy-17α-acetoxy-11β-(4 N,N-dimethylaminophenyl)-19-norpregna-4,9-diene-3,20-dione], the “anti-glucocorticoid receptor activity / glucocorticoid receptor binding” value in data set [1] is “minimal”. The “affinity for / inhibition of the opiate μ receptor (MOP)” value on opiate μ receptor (MOP) is “has affinity for and can inhibit”. For the same compound, the “consensus primary diagnosis of endometrial biopsy (WHO schema)” value in the data set with endometrium (12.5, 25 or 50 mg for six months, 12.5 or 25 mg for three months) is “benign endometrium”. Moreover, in the data set on endometrium (endometrial biopsies), the “blood vessel wall thickening and latticed capillary patterns” value is reported as “did not induce”. Further, the “most prominent secondary finding within the benign category” value in the data set with endometrium (endometrial biopsies, more prominent at lowest doses) is “cystic dilation of glands”. Moreover, in the data set on endometrium (every concentration tested (12.5, 25, 50 mg)), the endometrial proliferation result is “suppressed”. In data set [2], the “antiprogestin activity in the rabbit uterus” value is listed as “strong”. Also, in data set [3], the “differences in serum corticosterone between treatment groups” value is given as “No differences”. Further, the “endometrial thickening, group begun at day 15 versus group begun at day 5” value in data set [4] was “lesser degree of endometrial thickening”.

The values above are taken from patent US8426394B2, “Progesterone antagonists such as CDB-4124 in the treatment of endometriosis, uterine fibroids, dysmenorrhea, breast cancer, etc” (Repros Therapeutics Inc., priority 2008, dated 2013).
